Laboratory results: US11959079B2, “Methods for treating apolipoprotein E4-associated disorders” (priority 2009, dated 2024)
Entries after “also recorded” stand apart in the source; their conditions may differ.

Columns and labels:
Type in all cases: in vivo
[1] = system: apoE4(Δ272-299)mE−/−Tau+/+ mice; assay: Morris water maze, apoE4(Δ272-299)mE−/−Tau+/+ mice; conditions: 12-month-old female mice, 20 mg/kg i.p., 21 days before and every day during MWM, vs saline
Experimental: (§1) Human apoE3-KI and apoE4-KI mice (Sullivan et al., 2004) were from Taconic. Tau−/− mice (Dawson et al., 2001) were backcrossed onto the mE−/− background, and mE−/−Tau−/− mice were crossed with apoE4(Δ272-299)mE−/− Tau+/+ mice. Studies were conducted on female mice at 1, 3, 6, 12, 16, or 21 months of age. All mice were on a C57BL/6 genetic background. Some apoE4-KI and apoE4(Δ272-299)mE−/−Tau+/+ mice received daily intraperitoneal injections of pentobarbital (20 mg/kg) or saline in their home cages for 21 days before the first day of Morris Water Maze (MWM) training and 1 h after daily training. Some apoE4(Δ272-299)mE−/−Tau−/− mice were given daily injections of picrotoxin (1 mg/kg) or saline intraperitoneally in their home cages for 3 days before MWM training and 30 min before daily training. Brain tissues were collected after a 1-min transcardial perfusion with 0.9% NaCl. One hemibrain from each mouse was fixed in 4% paraformaldehyde, sectioned (30 μm) with a microtome, and immunostained as described below. All experiments were performed in accordance with NIH and institutional guidelines.
The water maze pool (diameter, 122 cm) contained opaque water (22-23° C.) with a platform 10 cm in diameter. […] Performance was monitored with an EthoVision video-tracking system (Noldus Information Technology).

female apoE4-KI mice [2] = assay: Morris water maze, spatial learning and memory, apoE4-KI mice
Experimental: as §1
(§2) The water maze pool (diameter, 122 cm) contained opaque water (22-23° C.) with a platform 10 cm in diameter. The platform was submerged 1.5 cm during hidden platform sessions (Harris et al., 2003; Raber et al., 1998; Roberson et al., 2007) and marked with black-and-white-striped mast (15 cm high) during cued training sessions. Mice were trained to locate the hidden platform (hidden days 1-5) and the cued platform (visible days 1-3) in two daily sessions (3.5 h apart), each consisting of two 60-s trials (hidden and cued training) with a 15-min intertrial interval. The platform location remained constant in the hidden platform sessions but was changed for each cued platform session. Entry points were changed semirandomly between trials. Twenty-four, 72, and 96 hours after the last hidden platform training, a 60-s probe trial (platform removed) was performed. Entry points for the probe trial were in the west quadrant, and the target quadrant was in the southeast quadrant. Performance was monitored with an EthoVision video-tracking system (Noldus Information Technology).

female apoE4-KI mice [3] = assay: Quantification of GAD67-positive hilar GABAergic interneurons, apoE4-KI mice; conditions: 16-month-old female apoE4-KI mice; 20 mg/kg i.p.
Experimental: as §1, with “Brain tissues were collected after a 1-min transcardial perfusion with 0.9% NaCl. One hemibrain from each mouse was fixed in 4% paraformaldehyde, sectioned (30 μm) with a microtome, and immunostained as described below. All experiments were performed in accordance with NIH and institutional guidelines.” left out
(§3) Sliding microtome sections (30 μm) were immunostained with the following primary antibodies: polyclonal goat anti-human apoE (1:8000 for fluorescence; Calbiochem), rabbit anti-neuropeptide Y (1:8000 for […] (DAB); ImmunoStar), rat anti-somatostatin (1:100 for DAB; Chemicon), mouse anti-GAD67 (1:1000 for DAB; Chemicon), mouse anti-MAP2 (1:500 for fluorescence; Sigma), mouse anti-synaptophysin (1:500 for fluorescence; DakoCytomation), and phosphorylation-dependent monoclonal antibody AT8 (p-Ser202; 1:100 for DAB; Endogen). […]

wildtype mice = assay: Morris water maze, wildtype mice; conditions: 12-month-old female wildtype mice, 1 mg/kg i.p., 3 days before and every day during MWM
Experimental: as §2

[4] = system: apoE4(Δ272-299)mE−/−Tau−/− mice; assay: Quantification of GAD67-positive hilar GABAergic interneurons, apoE4(Δ272-299)mE−/−Tau−/− mice; conditions: 12-month-old female mice, 1 mg/kg i.p., 3 days before and every day during MWM
Experimental: as §1, with “Brain tissues were collected after a 1-min transcardial perfusion with 0.9% NaCl. One hemibrain from each mouse was fixed in 4% paraformaldehyde, sectioned (30 μm) with a microtome, and immunostained as described below. All experiments were performed in accordance with NIH and institutional guidelines.” left out
as §3

[5] = system: apoE4(Δ272-299)mE−/−Tau−/− mice; assay: Morris water maze, apoE4(Δ272-299)mE−/−Tau−/− mice
Experimental: as §1
as §2, with “Entry points for the probe trial were in the west quadrant, and the target quadrant was in the southeast quadrant.” left out

mE−/−Tau+/+ mice = assay: Morris water maze, mE−/−Tau+/+ mice; conditions: 12-month-old female mE−/−Tau+/+ mice, 1 mg/kg i.p., 3 days before and every day during MWM
Experimental: as §2

Compound | learning deficit (hidden platform sessions) [1] | memory deficits in probe trial (target quadrant and target cross tests) (female apoE4-KI mice [2]; 16-month-old apoE4-KI mice, probe trial 96 h after last hidden session, 20 mg/kg i.p.) | learning and memory deficits (female apoE4-KI mice [2]; 16-month-old female apoE4-KI mice, 20 mg/kg i.p. daily, 21 days before and during MWM) | learning curve (escape latency, hidden platform days) (female apoE4-KI mice [2]; 16-month-old female apoE4-KI mice, 20 mg/kg i.p., 21 days before and daily during MWM, vs saline) | learning deficit / learning curve (hidden platform) (female apoE4-KI mice [2]; 21-month-old female apoE4-KI mice, 20 mg/kg, 21 days before and daily during MWM, vs saline, 20 mg/kg) | number of hilar GABAergic interneurons (female apoE4-KI mice [3]) | learning and memory performance (wildtype mice) | learning and memory performance (wildtype mice; listed as Picrotoxin) | number of hilar GABAergic interneurons (GAD67-positive) [4] | learning curve (hidden platform) ([5]; 1 mg/kg i.p., 3 days before and daily during MWM, vs saline-treated controls) | target crossing test in probe trial ([5]; probe trial 24 h after last hidden session, 1 mg/kg i.p.) | rescue (prevention) of learning and memory deficits by tau removal ([5]; subthreshold dose 1 mg/kg i.p., 3 days before and daily during MWM) | learning and memory performance (mE−/−Tau+/+ mice) | learning and memory performance (mE−/−Tau+/+ mice; listed as Picrotoxin)
CCCC(C)C1(CC)C(=O)NC(=O)NC1=O (centres unmarked) [pentobarbital] | rescued the learning and memory deficits; also recorded: rescued the learning deficit; also recorded: learned better than saline-treated apoE4(Δ272-299)mE−/−Tau+/+ mice (p<0.01) | rescued memory deficits | rescued the learning and memory deficits | differed from that of saline-treated apoE4-KI mice (p<0.05, repeated-measures ANOVA) but resembled that of untreated apoE3-KI mice | rescued; also recorded: differed from that of saline-treated apoE4-KI mice (p<0.05, repeated-measures ANOVA) but resembled that of saline-treated apoE3-KI mice | did not alter |  |  |  |  |  |  |  | 
picrotoxin |  |  |  |  |  |  | does not alter the learning and memory performance | did not alter | unaltered; also recorded: does not alter | resembled that of saline-treated apoE4(Δ272-299)mE−/−Tau+/+ mice | performed significantly worse | abolished | does not alter the learning and memory performance | did not alter
